# Measured values reported in US8198307B2, “Imidazole derivatives having aryl piperidine substituent, method for preparation thereof and pharmaceutical compositions containing same” (Korea Research Institute of Chemical Technology, priority 2007, dated 2012).
# Target: T1, MCH R1 (melanine-concentrating hormone receptor-1) (Homo sapiens, UniProt Q99705)
# T1 construct: purchased Euroscreen, Gosselies, Belgium
# Experiment: Inhibitory effects on MCH R1 binding (Eu-MCH time-resolved fluorescence binding assay)
# Settings: not given
# Protocol: First, MCH R1 (melanine-concentrating hormone receptor-1; Euroscreen, Gosselies, Belgium), 1 μM Europium-labeled melanine-concentrating hormone (Eu-MCH, PerkinElmer, Turku, Finland) and 1 mM melanine-concentrating hormone (MCH, #070-47, Phoenix, Belmont Calif., USA) were kept at 4° C. for ready use. 1 μM Eu-MCH and 1 mM MCH were diluted with an experimental solution (25 mM HEPES pH 7.4, 5 mM MgCl2, 1 mM CaCl2 and 0.5% (w/w) BSA) to 8 nM (final reaction concentration: 2 nM) and 2 μM (final reaction concentration: 0.5 μM), respectively. The compounds prepared in the Examples (“Test compounds”) were dissolved in the experimental solution in concentration of 4 nM to 40 μM (final reaction concentration: 1 nM to 10 μM). MCH R1 (200 assays/vial) was homogeneously dispersed in the experimental solution.
# Then, 100 μl/well of the following reaction mixture was added to the wells of a microplate (Multiwell 96 well filter plates PN5020, Pall Co., Ann Arbor, Mich., USA) equipped with a filter paper, with an 8-channel pipette (multi 8-channel, Eppendorf, Hamburg, Germany). Specifically, to the wells of a non-specific binding control group, 25 μl of Eu-MCH, 50 μl of MCH R1 and 25 μl of MCH were added. Further, 25 μl of the experimental solution supplemented with 10% (w/w) of DMSO, 25 μl of Eu-MCH and 50 μl of MCH R1 were added to the wells of a total binding control group, while 25 μl of the test compounds, 25 μl Eu-MCH and 50 μl of MCH R1 were added to the wells of an experimental group. Subsequently, the microplate was shaken gently for 15 seconds and kept at room temperature for 90 minutes to allow the reaction to take place. Then, the plate was washed with a microplate washer (EMBLA, Molecular Devices) by washing three times with 300 μl of a washing solution (25 mM HEPES pH 7.4, 5 mM MgCl2, 1 mM CaCl2) to remove the residual unreacted Eu-MCH. Moisture was removed from the bottom of the wells and 150 μl of dissociation solution (DELFIA Enhancement solution, PerkinElmer, Turku, Finland) was added to each well, followed by keeping the plate at room temperature for 2 to 4 hours. Subsequently, time-resolved fluorescence (TRF) values were measured with a multilabel counter (Victor2, PerkinElmer, Turku, Finland) (emission wave length: 615 nm, excitation wave length: 340 nm). The inhibition rate based on the time-resolved fluorescence data was calculated using the following Equation (I). Inhibition rate of time-resolved fluorescence (%)=[(Average TRF value of the total binding group−Time-resolved fluorescence value of the test compound)/(Average TRF value of the total binding group−Average TRF value of the non-specific binding group)]×100 (I)
# T1 sequence (Q99705 whole entry, species assumed): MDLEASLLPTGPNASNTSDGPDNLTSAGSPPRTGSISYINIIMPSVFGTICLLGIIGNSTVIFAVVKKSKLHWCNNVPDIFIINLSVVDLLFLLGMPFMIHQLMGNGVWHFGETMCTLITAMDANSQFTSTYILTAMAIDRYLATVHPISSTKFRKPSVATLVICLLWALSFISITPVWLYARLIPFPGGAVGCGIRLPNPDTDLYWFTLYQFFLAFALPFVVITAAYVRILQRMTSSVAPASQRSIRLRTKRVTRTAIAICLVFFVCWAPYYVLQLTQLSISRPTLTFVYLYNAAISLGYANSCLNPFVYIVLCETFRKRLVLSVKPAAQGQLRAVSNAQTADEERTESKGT
row,Structure (SMILES),IC50
1,"CC(=O)Nc1cccc(C2CCN(CCCn3c(-c4ccc(Cl)cc4)nc4cc([N+](=O)[O-])ccc43)CC2)c1 [Example 85, 2-(4-chlorophenyl)-1-{3-[4-(3-acetylaminophenyl)piperidin-1-yl]propyl}-5-nitro-1H-benzimidazole]",70 nM

# Same assay, conditions: concentration inhibiting the binding of MCH (Eu-MCH, 2 nM) to MCH R1 by 50% in vitro; TRF readout; test range 1 nM to 10 μM; read-out: IC50
row,Structure (SMILES),IC50
1,"CC(=O)Nc1cccc(C2CCN(CCCn3c(-c4cccc(F)c4)nc4ccc(Cl)cc43)CC2)c1 [Example 34, 2-(3-fluorophenyl)-1-{3-[4-(3-acetylaminophenyl)piperidin-1-yl]propyl}-6-chloro-1H-benzimidazole]",8 nM
2,"CC(=O)Nc1cccc(C2CCN(CCCn3c(-c4ccc(F)cc4)nc4ccccc43)CC2)c1 [Example 48, 2-(4-fluorophenyl)-1-{3-[4-(3-acetylaminophenyl)piperidin-1-yl]propyl}-1H-benzimidazole]",56 nM
3,"CC(=O)Nc1cccc(C2CCN(CCCn3c(-c4ccc(Cl)cc4)nc4cc(C(N)=O)ccc43)CC2)c1 [Example 60, 2-(4-chlorophenyl)-1-{3-[4-(3-acetylaminophenyl)piperidin-1-yl]propyl}-5-carbamoyl-1H-benzimidazole]",8 nM
4,"COc1ncccc1-c1nc2ccccc2n1CCCN1CCC(c2cccc(NC(C)=O)c2)CC1 [Example 115, 2-(2-methoxypyridin-3-yl)-1-{3-[4-(3-acetamidophenyl)piperidin-1-yl]propyl}-1H-benzimidazole]",67 nM
5,"CC(=O)Nc1cccc(C2CCN(CCCn3c(-c4cccc(C)c4)nc4ccccc43)CC2)c1 [Example 79, 2-(m-tolyl)-1-{3-[4-(3-acetylaminophenyl)piperidin-1-yl]propyl}-1H-benzimidazole]",20 nM
6,"CCCCc1nc2cc(-c3ccc([N+](=O)[O-])cc3)c(C)nc2n1CCCN1CCC(c2cccc(NC(=O)C(C)C)c2)CC1 [Example 103, 2-butyl-5-methyl-6-(4-nitrophenyl)-3-{3-[4-(3-isobutyrylaminophenyl)piperidin-1-yl]propyl}-3H-imidazo[4,5-b]pyridine]",20 nM
7,"CCCCc1nc2cc(-c3ccccn3)c(C)nc2n1CCCN1CCC(c2cccc(NC(C)=O)c2)CC1 [Example 97, 2-butyl-5-methyl-6-pyridin-2-yl-3-{3-[4-(3-acetylaminophenyl)piperidin-1-yl]propyl}-3H-imidazo[4,5-b]pyridine]",70 nM
8,"CC(=O)Nc1cccc(C2CCN(CCCn3c(CCc4cccnc4)nc4ccccc43)CC2)c1 [Example 127, 2-[2-(pyridin-3-yl)ethyl]-1-{3-[4-(3-acetamidophenyl)piperidin-1-yl]propyl}-1H-benzimidazole]",1 nM
9,"CCCCc1nc2cc(-c3ccccc3)c(C=O)nc2n1CCCN1CCC(c2cccc(NC(=O)C(C)C)c2)CC1 [Example 102, 2-butyl-5-formyl-6-phenyl-3-{3-[4-(3-isobutyrylaminophenyl)piperidin-1-yl]propyl}-3H-imidazo[4,5-b]pyridine]",260 nM
10,"CC(=O)Nc1cccc(C2CCN(CCCn3c(-c4ccc(Cl)nc4)nc4ccccc43)CC2)c1 [Example 113, 2-(6-chloropyridin-3-yl)-1-{3-[4-(3-acetamidophenyl)piperidin-1-yl]propyl}-1H-benzimidazole]",1 nM
11,"CC(=O)Nc1cccc(C2CCN(CCCn3c(C)nc4cc(C)c(C)cc43)CC2)c1 [Example 89, 2-methyl-1-{3-[4-(3-acetylaminophenyl)piperidin-1-yl]propyl}-5,6-dimethyl-1H-benzimidazole]",60 nM
12,"CC(=O)Nc1cccc(C2CCN(CCCn3c(-c4ccc(Cl)cc4)nc4cc(C)cc(C)c43)CC2)c1 [Example 49, 2-(4-chlorophenyl)-1-{3-[4-(3-acetylaminophenyl)piperidin-1-yl]propyl}-5,7-dimethyl-1H-benzimidazole]",197 nM
13,"CC(=O)Nc1cccc(C2CCN(CCCn3c(-c4cncc(Br)c4)nc4ccccc43)CC2)c1 [Example 112, 2-(5-bromopyridin-3-yl)-1-{3-[4-(3-acetylaminophenyl)piperidin-1-yl]propyl}-1H-benzimidazole]",5 nM
14,"CCCCc1nc2cc(Br)c(C)nc2n1CCCN1CCC(c2cccc(NC(C)=O)c2)CC1 [Example 94, 6-bromo-2-butyl-5-methyl-3-{3-[4-(3-acetylaminophenyl)piperidin-1-yl]propyl}-3H-imidazo[4,5-b]pyridine]",3 nM
15,"O=C(Nc1cccc(C2CCN(CCCn3c(-c4ccc(Cl)cc4)nc4ccccc43)CC2)c1)c1ccccc1 [Example 65, 2-(4-chlorophenyl)-1-{3-[4-(3-benzoylaminophenyl)piperidin-1-yl]propyl}-1H-benzimidazole]",19 nM
16,"CC(=O)Nc1cccc(C2CCN(CCCn3c(-c4cccc(Cl)c4)nc4cc(C)c(C)cc43)CC2)c1 [Example 38, 2-(3-chlorophenyl)-1-{3-[4-(3-acetylaminophenyl)piperidin-1-yl]propyl}-5,6-dimethyl-1H-benzimidazole]",3 nM
17,"CC(=O)Nc1cccc(C2CCN(CCCn3c(-c4ccccc4)nc4ccc(C)nc43)CC2)c1 [Example 69, 5-methyl-2-phenyl-3-{3-[4-(3-acetylaminophenyl)piperidin-1-yl]propyl}-3H-imidazo[4,5-b]pyridine]",22 nM
18,"CC(=O)Nc1cccc(C2CCN(CCCn3c(-c4ccc(C)s4)nc4ccccc43)CC2)c1 [Example 110, 2-(5-methylthiophen-2-yl)-1-{3-[4-(3-acetylaminophenyl)piperidin-1-yl]propyl}-1H-benzimidazole]",14 nM
19,"Cc1ccc(C(=O)Nc2cccc(C3CCN(CCCn4c(-c5ccc(Cl)cc5)nc5ccccc54)CC3)c2)cc1 [Example 67, 2-(4-chlorophenyl)-1-{3-[4-(3-(4-methylbenzoylamino)phenyl)piperidin-1-yl]propyl}-1H-benzimidazole]",> 10000 nM

# Other lines, results leading:
row,IC50,Structure (SMILES)
1,5 nM,"CC(=O)Nc1cccc(C2CCN(CCCn3c(-c4cccc(Cl)c4)nc4ccccc43)CC2)c1 [Example 10, 2-(3-chlorophenyl)-1-{3-[4-(3-acetylaminophenyl)piperidin-1-yl]propyl}-1H-benzimidazole]"
2,148 nM,"CC(=O)Nc1cccc(C2CCN(CCCn3c(-c4ccccc4F)nc4ccc(Cl)cc43)CC2)c1 [Example 33, 2-(2-fluorophenyl)-1-{3-[4-(3-acetylaminophenyl)piperidin-1-yl]propyl}-6-chloro-1H-benzimidazole]"
3,> 10000 nM,"CC(=O)Nc1cccc(C2CCN(CCCn3c(C)nc4ccccc43)CC2)c1 [Example 88, 2-methyl-1-{3-[4-(3-acetylaminophenyl)piperidin-1-yl]propyl}-1H-benzimidazole]"
4,70 nM,"CC(=O)Nc1cccc(C2CCN(CCCn3c(-c4ccc(Cl)cc4)nc4ccc(C#N)cc43)CC2)c1 [Example 82, 2-(4-chlorophenyl)-1-{3-[4-(3-acetylaminophenyl)piperidin-1-yl]propyl}-6-cyano-1H-benzimidazole]"
5,150 nM,"CC(=O)Nc1cccc(C2CCN(CCCn3c(-c4ccncc4)nc4ccccc43)CC2)c1 [Example 106, 2-(pyridin-4-yl)-1-{3-[4-(3-acetamidophenyl)piperidin-1-yl]propyl}-1H-benzimidazole]"
6,635 nM,"CC(=O)Nc1cccc(C2CCN(CCCn3c(-c4cccc(Cl)c4)nc4ccc([N+](=O)[O-])cc43)CC2)c1 [Example 41, 2-(3-chlorophenyl)-1-{3-[4-(3-acetylaminophenyl)piperidin-1-yl]propyl}-6-nitro-1H-benzimidazole]"
7,19 nM,"CC(=O)Nc1cccc(C2CCN(CCCn3c(-c4ccc(C(C)C)cc4)nc4ccccc43)CC2)c1 [Example 20, 2-(4-isopropylphenyl)-1-{3-[4-(3-acetylaminophenyl)piperidin-1-yl]propyl}-1H-benzimidazole]"
8,3 nM,"CC(=O)Nc1cccc(C2CCN(CCCn3c(-c4ocnc4C)nc4ccccc43)CC2)c1 [Example 123, 2-(4-methyloxazol-5-yl)-1-{3-[4-(3-acetamidophenyl)piperidin-1-yl]propyl}-1H-benzimidazole]"
9,213 nM,"O=C(Nc1cccc(C2CCN(CCCn3c(-c4ccc(Cl)cc4)nc4ccccc43)CC2)c1)c1cccc(Cl)c1 [Example 66, 2-(4-chlorophenyl)-1-{3-[4-(3-(3-chlorobenzoylamino)phenyl)piperidin-1-yl]propyl}-1H-benzimidazole]"
